How the values were obtained:
human VDR = target: T1, human VDR (Homo sapiens, UniProt P11473); test: Evaluation of VDR transcription activity in human osteoblasts (HOS cells), luciferase reporter; settings: Activity (EC50, VDR transcription activity), HOS cells transfected with human VDR, human RXRα and DR3 luciferase reporter; 21 hours
T1 sequence (P11473 1-427): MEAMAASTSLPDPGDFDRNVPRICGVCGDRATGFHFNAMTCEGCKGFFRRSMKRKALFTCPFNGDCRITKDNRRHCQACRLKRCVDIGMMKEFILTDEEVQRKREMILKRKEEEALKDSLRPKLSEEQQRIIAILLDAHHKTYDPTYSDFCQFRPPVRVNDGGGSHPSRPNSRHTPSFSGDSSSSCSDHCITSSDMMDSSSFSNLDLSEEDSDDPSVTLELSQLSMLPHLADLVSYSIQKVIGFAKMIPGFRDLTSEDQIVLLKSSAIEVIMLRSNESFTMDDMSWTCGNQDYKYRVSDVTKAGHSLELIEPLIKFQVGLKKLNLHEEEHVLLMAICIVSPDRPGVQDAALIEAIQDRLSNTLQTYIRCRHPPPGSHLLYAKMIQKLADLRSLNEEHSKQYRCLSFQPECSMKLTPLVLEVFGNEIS
T1 sequence (P19793 1-462 partner): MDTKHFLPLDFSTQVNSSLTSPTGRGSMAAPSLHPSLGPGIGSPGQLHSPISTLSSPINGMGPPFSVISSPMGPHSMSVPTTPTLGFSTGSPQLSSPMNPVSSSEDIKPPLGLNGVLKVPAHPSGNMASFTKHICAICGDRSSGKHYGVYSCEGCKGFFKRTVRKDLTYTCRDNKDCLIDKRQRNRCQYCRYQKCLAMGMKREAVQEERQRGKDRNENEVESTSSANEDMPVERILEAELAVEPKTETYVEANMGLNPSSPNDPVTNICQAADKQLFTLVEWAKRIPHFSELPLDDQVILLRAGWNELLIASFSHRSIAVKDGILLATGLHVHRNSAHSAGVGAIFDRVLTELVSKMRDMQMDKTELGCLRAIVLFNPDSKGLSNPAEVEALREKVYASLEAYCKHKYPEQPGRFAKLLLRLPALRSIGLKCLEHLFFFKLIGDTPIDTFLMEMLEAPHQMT

[1] = tested on: rat oligodendrocyte progenitor cells; test: Promotive activity of rat oligodendrocyte progenitor cell differentiation-1 (MBP gene expression, mRNA); type: cell-based; settings: Rattus norvegicus, Oligodendrocyte progenitor cell, 96 h, read-out: promotive activity at T3 base (MBP gene expression; DMSO 0%, T3 100%), 4 days, MBP/β actin mRNA
Experimental: Regarding vitamin D derivatives, which was confirmed to act on the vitamin D receptor (VDR) in Example 352, the promotive activity of oligodendrocyte progenitor cell (OPC) differentiation was evaluated by MBP gene expression (mRNA).
A forebrain obtained from SD rat (Charles River Japan, 1 day old) was crushed with 70 μm Cell Strainer (Falcon #352350), and a cell suspension was prepared by collecting the cells in oligodendrocyte progenitor cell separation medium (20% FBS/2 mM Glutamax (Gibco #35050-061)/i mM sodium pyruvate (Gibco #11360-070)/1% penicillin-streptomycin (Invitrogen #15140-122)/DMEM (Gibco #11960-044)). The cell suspension was seeded in a poly-D-lysine coated T75 flask (Thermo Fisher Scientific #132704) and cultured for about 2 weeks. After culturing, the flask was shaken using a rotary shaker ([…] #WB-101SRC) for about 1 hour (37° C., 100 rpm), and the supernatant was discarded to remove microglia. Subsequently, oligodendrocyte progenitor cell separation medium was added to the flask, and the mixture was similarly shaken for about 22 hours (37° C., 200 rpm), and the supernatant was collected to prepare oligodendrocyte progenitor cells.
The oligodendrocyte progenitor cell prepared was suspended in a differentiation medium (2% B27 (Thermo Fisher Scientific, Inc. #17504-044)/1% penicillin-streptomycin (Invitrogen Corporation #15140-122)/10 ng/mL CNTF (PeproTech Inc. #AF-450-13)/DMEM (Gibco #11960-044)), and seeded on a 96-well plate coated with poly-L-ornithine (FUJIFILM Wako Pure Chemical Corporation #163-27421) under the condition of 0.65×10^4 cells/well, and on a 384-well plate under the condition of 2×10^3 cells/well using an automatic dispensing system (LABCYTE #Echo555). […] After culturing, the cells seeded on the 96-well plate were subjected to immunostaining against MBP using following methods: fixation (4% paraformaldehyde solution, 30 minutes, room temperature), PBS washing, membrane permeation treatment (0.1% Trion X-100 (SIGMA #X100-100ML)/PBS, 3 minutes, room temperature), blocking (3% BSA (SIGMA #A9647-10G)/PBS, 1 hour, room temperature), primary antibody reaction (MBP antibody (abcam plc #ab40390), 2.5 μg/mL, 4° C., 24 hours), PBS washing, secondary antibody reaction (Alexa488 anti-rabbit IgG (Thermo Fisher Scientific, Inc. #A-11034), 5 μg/mL, room temperature, 1 hour), PBS washing, and nuclear staining (Hoechst33342 (DOJINDO #NU043), 10 μg/mL, room temperature, 5 minutes). Subsequently, images of each well were acquired using a fluorescence microscope (KEYENCE CORPORATION #BZ-X800), the number of MBP-positive cells and Hoechst 33342-positive cells were measured using an image analysis application (KEYENCE CORPORATION #BZ-X800 Analyzer), and then the ratio (the number of MBP-positive cells/the number of Hoechst33342-positive cells) was calculated. The cells seeded on the 384-well plate were subjected to real-time PCR using Cells-to-CT 1-Step TaqMan Kit (Thermo Fisher Scientific, Inc. #A25602) and QuantStudio 12K Flex Real-Time PCR System (Thermo Fisher Scientific, Inc. #4472380). The experiment was performed in accordance with the protocol attached to the kit. MBP (Thermo Fisher Scientific, Inc. #Assay ID Rn00690616_ml) and β actin (Thermo Fisher Scientific, Inc. #Assay ID Rn00667869_ml) were used as primers, and the expression levels of each were measured and the ratio (MBP/β actin) was calculated.

Row | EC50 (human VDR) | SMILES | activation at 1 µM [1]
1 | 1 to 10 nM | C[C@@H]1CCN(C[C@@H](C)[C@H]2CC[C@H]3/C(=C/C=C4C[C@@H](O)C[C@H](O)C4)CCC[C@]23C)C1 [Compound B004, (1R,3R)-5-(2-((1R,3aS,7aR,E)-7a-methyl-1-((S)-1-((R)-3-methylpyrrolidin-1-yl)propan-2-yl)octahydro-4H-inden-4-ylidene)ethylidene)cyclohexane-1,3-diol] | ≥ 20%
2 | 10 to 100 nM | C=C1/C(=C\C=C2/CCC[C@]3(C)[C@@H]([C@H](C)CN4CCC[C@H](C(C)(F)F)C4)CC[C@@H]23)C[C@@H](O)C[C@@H]1O [Compound C052, (1R,3S,Z)-5-(2-((1R,3aS,7aR,E)-1-((S)-1-((S)-3-(1,1-difluoroethyl)piperidin-1-yl)propan-2-yl)-7a-methyloctahydro-4H-inden-4-ylidene)ethylidene)-4-methylenecyclohexane-1,3-diol] | ≥ 20%
3 | 10 to 100 nM | C=C1[C@H](O)CC(=C/C=C2\CCC[C@]3(C)[C@@H]([C@H](C)CN4C[C@@H](C)OC[C@H]4C)CC[C@@H]23)C[C@H]1O [Compound D017, (1R,3R)-5-(2-((1R,3aS,7aR,E)-1-((S)-1-((2R,5R)-2,5-dimethylmorpholino)propan-2-yl)-7a-methyloctahydro-4H-inden-4-ylidene)ethylidene)-2-methylenecyclohexane-1,3-diol] | ≥ 20%
4 | 10 to 100 nM | C=C1[C@H](O)CC(=C/C=C2\CCC[C@]3(C)[C@@H]([C@H](C)CCN4CCO[C@@H](C)C4)CC[C@@H]23)C[C@H]1O [Compound D025, (1R,3R)-5-(2-((1R,3aS,7aR,E)-7a-methyl-1-((R)-4-((S)-2-methylmorpholino)butan-2-yl)octahydro-4H-inden-4-ylidene)ethylidene)-2-methylenecyclohexane-1,3-diol] | ≥ 20%
5 | 1 to 10 nM | C=C1C(O)CC(=C/C=C2\CCC[C@]3(C)[C@@H]([C@H](C)CN4CC[C@](C)(O)C4)CC[C@@H]23)C[C@H]1O (stereo in doubt) [Compound B073, (1R,3S)-5-(2-((1R,3aS,7aR,E)-1-((S)-1-((S)-3-hydroxy-3-methylpyrrolidin-1-yl)propan-2-yl)-7a-methyloctahydro-4H-inden-4-ylidene)ethylidene)-2-methylenecyclohexane-1,3-diol] | ≥ 20%
6 | 10 to 100 nM | C=C1[C@H](O)CC(=C/C=C2\CCC[C@]3(C)[C@@H]([C@H](C)CN4CC[C@@H](CCC(F)F)C4)CC[C@@H]23)C[C@H]1O [Compound B062, (1R,3R)-5-(2-((1R,3aS,7aR,E)-1-((S)-1-((R)-3-(3,3-difluoropropyl)pyrrolidin-1-yl)propan-2-yl)-7a-methyloctahydro-4H-inden-4-ylidene)ethylidene)-2-methylenecyclohexane-1,3-diol] | ≥ 20%

More lines, now with the values behind:

Row | SMILES | EC50 (human VDR) | activation at 1 µM [1]
7 | C=C1[C@H](O)CC(=C/C=C2\CCC[C@]3(C)[C@@H]([C@H](C)CCN4CCOC[C@@H]4C)CC[C@@H]23)C[C@H]1O [Compound D032, (1R,3R)-5-(2-((1R,3aS,7aR,E)-7a-methyl-1-((R)-4-((S)-3-methylmorpholino)butan-2-yl)octahydro-4H-inden-4-ylidene)ethylidene)-2-methylenecyclohexane-1,3-diol] | 10 to 100 nM | ≥ 20%
8 | C=C1/C(=C\C=C2/CCC[C@]3(C)[C@@H]([C@H](C)CN4CC[C@H](CCC(F)F)C4)CC[C@@H]23)C[C@@H](O)C[C@@H]1O [Compound B059, (1R,3S,Z)-5-(2-((1R,3aS,7aR,E)-1-((S)-1-((S)-3-(3,3-difluoropropyl)pyrrolidin-1-yl)propan-2-yl)-7a-methyloctahydro-4H-inden-4-ylidene)ethylidene)-4-methylenecyclohexane-1,3-diol] | 100 to 1000 nM | ≥ 20%
9 | C=C1C(O)CC(=C/C=C2\CCC[C@]3(C)[C@@H]([C@H](C)CN4CC[C@H](OC(F)(F)F)C4)CC[C@@H]23)C[C@H]1O (stereo in doubt) [Compound B067, (1R,3S)-5-(2-((1R,3aS,7aR,E)-7a-methyl-1-((S)-1-((S)-3-(trifluoromethoxy)pyrrolidin-1-yl)propan-2-yl)octahydro-4H-inden-4-ylidene)ethylidene)-2-methylenecyclohexane-1,3-diol] | 1 to 10 nM | ≥ 20%
10 | C=C1/C(=C\C=C2/CCC[C@]3(C)[C@@H]([C@H](C)CCN4CCO[C@H](C)C4)CC[C@@H]23)C[C@@H](O)CC1O (stereo in doubt) [Compound D047, (1R,3R,Z)-5-(2-((1R,3aS,7aR,E)-7a-methyl-1-((R)-4-((R)-2-methylmorpholino)butan-2-yl)octahydro-4H-inden-4-ylidene)ethylidene)-4-methylenecyclohexane-1,3-diol] | – | ≥ 20%
11 | C=C1[C@H](O)CC(=C/C=C2\CCC[C@]3(C)[C@@H]([C@H](C)CN4CC[C@H](C)C4)CC[C@@H]23)C[C@H]1O [Compound B002, (1R,3R)-5-(2-((1R,3aS,7aR,E)-7a-methyl-1-((S)-1-((S)-3-methylpyrrolidin-1-yl)propan-2-yl)octahydro-4H-inden-4-ylidene)ethylidene)-2-methylenecyclohexane-1,3-diol] | 10 to 100 nM | ≥ 20%
12 | C=C1/C(=C\C=C2/CCC[C@]3(C)[C@@H]([C@H](C)CCN4CCO[C@@H](C(F)F)C4)CC[C@@H]23)C[C@@H](O)C[C@@H]1O [Compound D037, (1R,3 S,Z)-5-(2-((1R,3aS,7aR,E)-1-((R)-4-((R)-2-(difluoromethyl)morpholino)butan-2-yl)-7a-methyloctahydro-4H-inden-4-ylidene)ethylidene)-4-methylenecyclohexane-1,3-diol] | – | ≥ 20%
13 | C=C1/C(=C\C=C2/CCC[C@]3(C)[C@@H]([C@H](C)CCN4CCO[C@@H](C)C4)CC[C@@H]23)C[C@@H](O)CC1O (stereo in doubt) [Compound D048, (1R,3R,Z)-5-(2-((1R,3aS,7aR,E)-7a-methyl-1-((R)-4-((S)-2-methylmorpholino)butan-2-yl)octahydro-4H-inden-4-ylidene)ethylidene)-4-methylenecyclohexane-1,3-diol] | – | ≥ 20%

— patent US20230348376A1 (TEIJIN PHARMA LIMITED, priority 2020, published 2023)
